{
  "source": "ChEMBL document CHEMBL3124838",
  "about": "“Discovery of 6-aryl-azabenzimidazoles that inhibit the TBK1/IKK-ε kinases” (Bioorg Med Chem Lett, 2014)",
  "data": [
    {"target": "T1, Eukaryotic elongation factor 2 kinase (Homo sapiens) (UniProt O00418)", "T1 sequence (whole entry)": "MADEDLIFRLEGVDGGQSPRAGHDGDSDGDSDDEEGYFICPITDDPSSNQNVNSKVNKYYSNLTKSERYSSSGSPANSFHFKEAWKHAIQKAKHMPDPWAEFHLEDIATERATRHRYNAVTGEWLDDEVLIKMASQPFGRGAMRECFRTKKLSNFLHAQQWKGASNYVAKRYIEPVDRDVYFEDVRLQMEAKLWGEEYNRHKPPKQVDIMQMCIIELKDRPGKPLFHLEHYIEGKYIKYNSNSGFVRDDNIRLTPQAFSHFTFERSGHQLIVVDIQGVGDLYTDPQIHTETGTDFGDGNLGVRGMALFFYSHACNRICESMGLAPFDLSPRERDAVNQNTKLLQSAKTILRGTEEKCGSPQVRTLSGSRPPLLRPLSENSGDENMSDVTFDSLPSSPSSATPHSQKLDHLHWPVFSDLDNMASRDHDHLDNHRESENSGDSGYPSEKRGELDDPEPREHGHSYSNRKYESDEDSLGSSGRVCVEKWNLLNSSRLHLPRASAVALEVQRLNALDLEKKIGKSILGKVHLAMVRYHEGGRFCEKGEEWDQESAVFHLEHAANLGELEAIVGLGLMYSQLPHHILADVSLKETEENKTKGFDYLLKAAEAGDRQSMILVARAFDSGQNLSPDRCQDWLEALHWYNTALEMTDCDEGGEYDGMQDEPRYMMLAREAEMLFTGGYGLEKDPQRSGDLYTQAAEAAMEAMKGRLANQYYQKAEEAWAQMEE", "experiment": "Inhibition of human eEF-2K assessed as residual activity at 1 uM relative to control", "units": {"Activity": "%"}, "values": [
      {"smiles": "COc1ccc(-c2nc3cc(-c4csc(C(=O)NCC(C)(C)C)c4)cnc3[nH]2)cc1", "Activity": 91},
      {"smiles": "COc1ccc(-c2nc3cc(-c4csc(C(=O)NCC(C)C)c4)cnc3[nH]2)cc1", "Activity": 102},
      {"smiles": "COc1ccc(-c2nc3cc(-c4csc(C(=O)NCCC(C)C)c4)cnc3[nH]2)cc1", "Activity": 101}
    ]},
    {"target": "Serine/threonine-protein kinase mTOR (Homo sapiens) (UniProt P42345)", "experiment": "Inhibition of human mTOR assessed as residual activity at 1 uM relative to control", "units": {"Activity": "%"}, "values": [
      {"smiles": "COc1ccc(-c2nc3cc(-c4csc(C(=O)NCC(C)(C)C)c4)cnc3[nH]2)cc1", "Activity": 102},
      {"smiles": "COc1ccc(-c2nc3cc(-c4csc(C(=O)NCC(C)C)c4)cnc3[nH]2)cc1", "Activity": 104},
      {"smiles": "COc1ccc(-c2nc3cc(-c4csc(C(=O)NCCC(C)C)c4)cnc3[nH]2)cc1", "Activity": 110}
    ]},
    {"target": "Ephrin type-A receptor 5 (Homo sapiens) (UniProt P54756)", "experiment": "Inhibition of human EPHA5 assessed as residual activity at 1 uM relative to control", "units": {"Activity": "%"}, "values": [
      {"smiles": "COc1ccc(-c2nc3cc(-c4csc(C(=O)NCC(C)(C)C)c4)cnc3[nH]2)cc1", "Activity": 77},
      {"smiles": "COc1ccc(-c2nc3cc(-c4csc(C(=O)NCC(C)C)c4)cnc3[nH]2)cc1", "Activity": 72},
      {"smiles": "COc1ccc(-c2nc3cc(-c4csc(C(=O)NCCC(C)C)c4)cnc3[nH]2)cc1", "Activity": 76}
    ]},
    {"target": "T2, Serine/threonine-protein kinase 17A (Homo sapiens) (UniProt Q9UEE5)", "T2 sequence (whole entry)": "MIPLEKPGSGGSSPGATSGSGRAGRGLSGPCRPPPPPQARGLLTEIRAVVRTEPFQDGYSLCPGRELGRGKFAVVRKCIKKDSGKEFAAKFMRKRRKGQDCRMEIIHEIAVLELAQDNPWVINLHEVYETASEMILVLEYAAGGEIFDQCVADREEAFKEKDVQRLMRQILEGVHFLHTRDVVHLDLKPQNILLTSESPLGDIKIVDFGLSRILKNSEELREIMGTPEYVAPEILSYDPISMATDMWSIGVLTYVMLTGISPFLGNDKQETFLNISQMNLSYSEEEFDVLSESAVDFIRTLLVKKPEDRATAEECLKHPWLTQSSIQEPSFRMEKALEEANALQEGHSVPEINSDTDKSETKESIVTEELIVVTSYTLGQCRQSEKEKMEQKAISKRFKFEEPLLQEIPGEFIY", "experiment": "Inhibition of human DRAK1 assessed as residual activity at 1 uM relative to control", "units": {"Activity": "%"}, "values": [
      {"smiles": "COc1ccc(-c2nc3cc(-c4csc(C(=O)NCC(C)(C)C)c4)cnc3[nH]2)cc1", "Activity": 8},
      {"smiles": "COc1ccc(-c2nc3cc(-c4csc(C(=O)NCC(C)C)c4)cnc3[nH]2)cc1", "Activity": 4},
      {"smiles": "COc1ccc(-c2nc3cc(-c4csc(C(=O)NCCC(C)C)c4)cnc3[nH]2)cc1", "Activity": 7}
    ]},
    {"target": "Insulin receptor (Homo sapiens) (UniProt P06213)", "experiment": "Inhibition of human activated IR assessed as residual activity at 1 uM relative to control", "units": {"Activity": "%"}, "values": [
      {"smiles": "COc1ccc(-c2nc3cc(-c4csc(C(=O)NCC(C)(C)C)c4)cnc3[nH]2)cc1", "Activity": 96},
      {"smiles": "COc1ccc(-c2nc3cc(-c4csc(C(=O)NCC(C)C)c4)cnc3[nH]2)cc1", "Activity": 109},
      {"smiles": "COc1ccc(-c2nc3cc(-c4csc(C(=O)NCCC(C)C)c4)cnc3[nH]2)cc1", "Activity": 100}
    ]},
    {"target": "Tyrosine-protein kinase Fer (Homo sapiens) (UniProt P16591)", "experiment": "Inhibition of human FER assessed as residual activity at 1 uM relative to control", "units": {"Activity": "%"}, "values": [
      {"smiles": "COc1ccc(-c2nc3cc(-c4csc(C(=O)NCC(C)(C)C)c4)cnc3[nH]2)cc1", "Activity": 100},
      {"smiles": "COc1ccc(-c2nc3cc(-c4csc(C(=O)NCC(C)C)c4)cnc3[nH]2)cc1", "Activity": 111},
      {"smiles": "COc1ccc(-c2nc3cc(-c4csc(C(=O)NCCC(C)C)c4)cnc3[nH]2)cc1", "Activity": 104}
    ]},
    {"target": "Tyrosine-protein kinase Fes/Fps (Homo sapiens) (UniProt P07332)", "experiment": "Inhibition of human FES assessed as residual activity at 1 uM relative to control", "units": {"Activity": "%"}, "values": [
      {"smiles": "COc1ccc(-c2nc3cc(-c4csc(C(=O)NCC(C)(C)C)c4)cnc3[nH]2)cc1", "Activity": 85},
      {"smiles": "COc1ccc(-c2nc3cc(-c4csc(C(=O)NCC(C)C)c4)cnc3[nH]2)cc1", "Activity": 92},
      {"smiles": "COc1ccc(-c2nc3cc(-c4csc(C(=O)NCCC(C)C)c4)cnc3[nH]2)cc1", "Activity": 92}
    ]},
    {"target": "Ribosomal protein S6 kinase alpha-1 (Homo sapiens) (UniProt Q15418)", "sequence (Q15418 whole entry)": "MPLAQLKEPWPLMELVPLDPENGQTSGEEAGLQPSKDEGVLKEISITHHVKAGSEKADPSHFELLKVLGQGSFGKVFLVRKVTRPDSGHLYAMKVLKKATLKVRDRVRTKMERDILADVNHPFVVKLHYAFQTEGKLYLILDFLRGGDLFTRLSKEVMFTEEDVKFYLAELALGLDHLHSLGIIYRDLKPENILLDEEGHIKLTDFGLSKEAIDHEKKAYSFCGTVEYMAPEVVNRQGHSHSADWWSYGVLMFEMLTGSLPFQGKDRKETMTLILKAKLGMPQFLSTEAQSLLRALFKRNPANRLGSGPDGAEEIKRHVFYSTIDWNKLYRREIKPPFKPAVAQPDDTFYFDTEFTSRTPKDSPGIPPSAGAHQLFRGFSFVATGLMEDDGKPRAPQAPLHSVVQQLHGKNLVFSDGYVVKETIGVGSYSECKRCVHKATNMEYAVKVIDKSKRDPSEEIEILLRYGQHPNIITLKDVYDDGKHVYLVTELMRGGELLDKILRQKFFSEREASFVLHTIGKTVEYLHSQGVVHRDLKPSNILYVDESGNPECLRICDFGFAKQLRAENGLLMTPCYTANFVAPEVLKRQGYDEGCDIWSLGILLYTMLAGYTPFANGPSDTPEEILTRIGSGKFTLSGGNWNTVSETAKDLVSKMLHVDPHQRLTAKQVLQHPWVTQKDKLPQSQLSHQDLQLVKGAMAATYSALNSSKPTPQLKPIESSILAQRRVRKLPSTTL", "experiment": "Inhibition of human RSK1 assessed as residual activity at 1 uM relative to control", "units": {"Activity": "%"}, "values": [
      {"smiles": "COc1ccc(-c2nc3cc(-c4csc(C(=O)NCC(C)(C)C)c4)cnc3[nH]2)cc1", "Activity": 73},
      {"smiles": "COc1ccc(-c2nc3cc(-c4csc(C(=O)NCC(C)C)c4)cnc3[nH]2)cc1", "Activity": 63},
      {"smiles": "COc1ccc(-c2nc3cc(-c4csc(C(=O)NCCC(C)C)c4)cnc3[nH]2)cc1", "Activity": 76}
    ]},
    {"target": "SRSF protein kinase 1 (Homo sapiens) (UniProt Q96SB4)", "sequence (Q96SB4 whole entry)": "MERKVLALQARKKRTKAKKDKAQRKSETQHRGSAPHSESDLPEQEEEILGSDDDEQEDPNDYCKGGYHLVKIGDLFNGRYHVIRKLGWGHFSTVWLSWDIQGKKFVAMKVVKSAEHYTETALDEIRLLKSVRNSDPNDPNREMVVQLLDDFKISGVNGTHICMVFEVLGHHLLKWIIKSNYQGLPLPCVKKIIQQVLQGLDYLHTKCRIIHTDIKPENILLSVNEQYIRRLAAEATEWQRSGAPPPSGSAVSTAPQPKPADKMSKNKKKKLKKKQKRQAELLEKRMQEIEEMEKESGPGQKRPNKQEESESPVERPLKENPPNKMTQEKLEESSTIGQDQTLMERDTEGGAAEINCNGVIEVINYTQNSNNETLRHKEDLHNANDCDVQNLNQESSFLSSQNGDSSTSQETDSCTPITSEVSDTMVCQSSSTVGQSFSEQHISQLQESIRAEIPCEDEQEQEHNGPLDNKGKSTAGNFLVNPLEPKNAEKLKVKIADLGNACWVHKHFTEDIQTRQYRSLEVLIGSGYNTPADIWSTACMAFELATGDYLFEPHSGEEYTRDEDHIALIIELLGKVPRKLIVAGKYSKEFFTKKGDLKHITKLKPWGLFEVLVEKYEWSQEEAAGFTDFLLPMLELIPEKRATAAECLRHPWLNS", "experiment": "Inhibition of human SRPK1 assessed as residual activity at 1 uM relative to control", "units": {"Activity": "%"}, "values": [
      {"smiles": "COc1ccc(-c2nc3cc(-c4csc(C(=O)NCC(C)(C)C)c4)cnc3[nH]2)cc1", "Activity": 94},
      {"smiles": "COc1ccc(-c2nc3cc(-c4csc(C(=O)NCC(C)C)c4)cnc3[nH]2)cc1", "Activity": 91},
      {"smiles": "COc1ccc(-c2nc3cc(-c4csc(C(=O)NCCC(C)C)c4)cnc3[nH]2)cc1", "Activity": 96}
    ]},
    {"system": "Fibroblast growth factor receptor 1 (Homo sapiens), P11362 [V561M]", "sequence (P11362 whole entry V561M)": "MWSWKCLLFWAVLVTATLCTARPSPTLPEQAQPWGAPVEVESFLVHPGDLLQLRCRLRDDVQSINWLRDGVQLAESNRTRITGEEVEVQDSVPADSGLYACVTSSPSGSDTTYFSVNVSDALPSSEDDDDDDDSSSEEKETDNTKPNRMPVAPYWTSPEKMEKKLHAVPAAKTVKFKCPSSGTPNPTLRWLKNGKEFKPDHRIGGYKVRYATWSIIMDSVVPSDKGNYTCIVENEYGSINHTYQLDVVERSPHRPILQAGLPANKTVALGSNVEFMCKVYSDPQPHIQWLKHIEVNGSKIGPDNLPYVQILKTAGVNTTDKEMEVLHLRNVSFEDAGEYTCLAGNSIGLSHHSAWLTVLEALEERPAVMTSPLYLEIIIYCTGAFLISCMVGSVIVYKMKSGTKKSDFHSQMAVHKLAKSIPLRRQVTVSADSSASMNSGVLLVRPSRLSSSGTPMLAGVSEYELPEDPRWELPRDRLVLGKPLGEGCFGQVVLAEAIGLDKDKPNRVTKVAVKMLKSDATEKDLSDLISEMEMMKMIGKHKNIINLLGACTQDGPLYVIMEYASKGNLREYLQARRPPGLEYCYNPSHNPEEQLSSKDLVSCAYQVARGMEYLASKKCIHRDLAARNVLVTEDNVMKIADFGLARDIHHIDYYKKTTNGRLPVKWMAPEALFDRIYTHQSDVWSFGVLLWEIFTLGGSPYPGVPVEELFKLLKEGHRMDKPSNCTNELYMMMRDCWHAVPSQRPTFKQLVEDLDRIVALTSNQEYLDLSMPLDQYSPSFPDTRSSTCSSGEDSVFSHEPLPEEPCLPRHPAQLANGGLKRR", "experiment": "Inhibition of human FGFR1 V561M mutant assessed as residual activity at 1 uM relative to control", "units": {"Activity": "%"}, "values": [
      {"smiles": "COc1ccc(-c2nc3cc(-c4csc(C(=O)NCC(C)(C)C)c4)cnc3[nH]2)cc1", "Activity": 104},
      {"smiles": "COc1ccc(-c2nc3cc(-c4csc(C(=O)NCC(C)C)c4)cnc3[nH]2)cc1", "Activity": 85},
      {"smiles": "COc1ccc(-c2nc3cc(-c4csc(C(=O)NCCC(C)C)c4)cnc3[nH]2)cc1", "Activity": 90}
    ]},
    {"system": "Proto-oncogene tyrosine-protein kinase receptor Ret (Homo sapiens), P07949 [V804M]", "experiment": "Inhibition of human RET V804M mutant assessed as residual activity at 1 uM relative to control", "units": {"Activity": "%"}, "values": [
      {"smiles": "COc1ccc(-c2nc3cc(-c4csc(C(=O)NCC(C)(C)C)c4)cnc3[nH]2)cc1", "Activity": 24},
      {"smiles": "COc1ccc(-c2nc3cc(-c4csc(C(=O)NCC(C)C)c4)cnc3[nH]2)cc1", "Activity": 15},
      {"smiles": "COc1ccc(-c2nc3cc(-c4csc(C(=O)NCCC(C)C)c4)cnc3[nH]2)cc1", "Activity": 9}
    ]},
    {"target": "Serine/threonine-protein kinase pim-2 (Homo sapiens) (UniProt Q9P1W9)", "sequence (Q9P1W9 whole entry, looked up)": "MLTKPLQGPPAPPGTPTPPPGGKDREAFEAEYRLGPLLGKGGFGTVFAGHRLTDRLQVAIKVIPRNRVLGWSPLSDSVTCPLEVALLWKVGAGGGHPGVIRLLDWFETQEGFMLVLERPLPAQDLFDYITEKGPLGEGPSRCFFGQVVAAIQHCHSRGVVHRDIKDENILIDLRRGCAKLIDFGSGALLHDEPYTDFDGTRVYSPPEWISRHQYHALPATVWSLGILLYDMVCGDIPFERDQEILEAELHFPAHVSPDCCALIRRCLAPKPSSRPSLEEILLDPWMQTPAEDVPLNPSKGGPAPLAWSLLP", "experiment": "Inhibition of human PIM-2 assessed as residual activity at 1 uM relative to control", "units": {"Activity": "%"}, "values": [
      {"smiles": "COc1ccc(-c2nc3cc(-c4csc(C(=O)NCC(C)(C)C)c4)cnc3[nH]2)cc1", "Activity": 93},
      {"smiles": "COc1ccc(-c2nc3cc(-c4csc(C(=O)NCC(C)C)c4)cnc3[nH]2)cc1", "Activity": 90},
      {"smiles": "COc1ccc(-c2nc3cc(-c4csc(C(=O)NCCC(C)C)c4)cnc3[nH]2)cc1", "Activity": 94}
    ]},
    {"target": "Fibroblast growth factor receptor 1 (Homo sapiens) (UniProt P11362)", "sequence (P11362 22-822 limits assumed)": "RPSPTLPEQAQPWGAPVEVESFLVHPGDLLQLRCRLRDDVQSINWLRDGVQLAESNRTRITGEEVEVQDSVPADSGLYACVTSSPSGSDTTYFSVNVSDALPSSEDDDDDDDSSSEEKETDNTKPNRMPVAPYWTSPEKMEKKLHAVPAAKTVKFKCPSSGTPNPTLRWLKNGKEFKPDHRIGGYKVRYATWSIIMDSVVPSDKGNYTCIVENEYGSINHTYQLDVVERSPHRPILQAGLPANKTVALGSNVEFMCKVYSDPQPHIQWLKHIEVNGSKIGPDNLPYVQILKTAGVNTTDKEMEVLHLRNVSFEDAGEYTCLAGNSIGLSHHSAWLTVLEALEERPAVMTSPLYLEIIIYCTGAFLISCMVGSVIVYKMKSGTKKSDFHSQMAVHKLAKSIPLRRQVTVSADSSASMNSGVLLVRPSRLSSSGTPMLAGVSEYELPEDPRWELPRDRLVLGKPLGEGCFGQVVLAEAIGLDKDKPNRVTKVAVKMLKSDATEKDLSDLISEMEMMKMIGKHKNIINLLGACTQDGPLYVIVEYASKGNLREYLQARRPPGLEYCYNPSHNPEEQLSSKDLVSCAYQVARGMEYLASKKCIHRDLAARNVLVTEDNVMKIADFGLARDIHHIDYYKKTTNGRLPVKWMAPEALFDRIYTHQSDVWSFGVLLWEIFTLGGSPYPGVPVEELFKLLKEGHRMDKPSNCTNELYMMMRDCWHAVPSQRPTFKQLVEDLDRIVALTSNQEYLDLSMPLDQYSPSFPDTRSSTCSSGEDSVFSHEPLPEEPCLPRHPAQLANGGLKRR", "experiment": "Inhibition of human FGFR1 assessed as residual activity at 1 uM relative to control", "units": {"Activity": "%"}, "values": [
      {"smiles": "COc1ccc(-c2nc3cc(-c4csc(C(=O)NCC(C)(C)C)c4)cnc3[nH]2)cc1", "Activity": 94},
      {"smiles": "COc1ccc(-c2nc3cc(-c4csc(C(=O)NCC(C)C)c4)cnc3[nH]2)cc1", "Activity": 70},
      {"smiles": "COc1ccc(-c2nc3cc(-c4csc(C(=O)NCCC(C)C)c4)cnc3[nH]2)cc1", "Activity": 91}
    ]},
    {"target": "Serine/threonine-protein kinase PAK 5 (Homo sapiens) (UniProt Q9P286)", "sequence (Q9P286 whole entry, looked up)": "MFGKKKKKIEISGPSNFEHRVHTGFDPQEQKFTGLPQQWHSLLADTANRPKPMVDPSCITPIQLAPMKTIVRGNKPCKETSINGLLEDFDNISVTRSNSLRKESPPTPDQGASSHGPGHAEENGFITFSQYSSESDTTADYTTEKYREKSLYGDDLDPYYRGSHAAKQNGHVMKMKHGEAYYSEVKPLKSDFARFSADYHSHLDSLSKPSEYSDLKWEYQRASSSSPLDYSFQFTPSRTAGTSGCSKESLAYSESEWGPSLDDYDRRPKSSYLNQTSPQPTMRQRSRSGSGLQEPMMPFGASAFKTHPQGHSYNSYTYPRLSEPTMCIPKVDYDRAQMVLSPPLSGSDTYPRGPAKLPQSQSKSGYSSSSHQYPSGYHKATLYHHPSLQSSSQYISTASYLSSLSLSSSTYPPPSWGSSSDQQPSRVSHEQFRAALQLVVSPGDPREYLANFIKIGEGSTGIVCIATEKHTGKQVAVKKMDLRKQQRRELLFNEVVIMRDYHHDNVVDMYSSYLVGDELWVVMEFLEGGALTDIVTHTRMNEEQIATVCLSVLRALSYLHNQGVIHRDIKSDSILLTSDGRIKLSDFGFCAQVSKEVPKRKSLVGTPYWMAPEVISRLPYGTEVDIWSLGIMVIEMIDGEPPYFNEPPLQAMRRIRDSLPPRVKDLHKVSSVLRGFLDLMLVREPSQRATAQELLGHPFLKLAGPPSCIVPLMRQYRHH", "experiment": "Inhibition of human PAK5 assessed as residual activity at 1 uM relative to control", "units": {"Activity": "%"}, "values": [
      {"smiles": "COc1ccc(-c2nc3cc(-c4csc(C(=O)NCC(C)(C)C)c4)cnc3[nH]2)cc1", "Activity": 94},
      {"smiles": "COc1ccc(-c2nc3cc(-c4csc(C(=O)NCC(C)C)c4)cnc3[nH]2)cc1", "Activity": 97},
      {"smiles": "COc1ccc(-c2nc3cc(-c4csc(C(=O)NCCC(C)C)c4)cnc3[nH]2)cc1", "Activity": 86}
    ]},
    {"target": "Dual specificity mitogen-activated protein kinase kinase 1 (Homo sapiens) (UniProt Q02750)", "experiment": "Inhibition of human MEK1 assessed as residual activity at 1 uM relative to control", "units": {"Activity": "%"}, "values": [
      {"smiles": "COc1ccc(-c2nc3cc(-c4csc(C(=O)NCC(C)(C)C)c4)cnc3[nH]2)cc1", "Activity": 89},
      {"smiles": "COc1ccc(-c2nc3cc(-c4csc(C(=O)NCC(C)C)c4)cnc3[nH]2)cc1", "Activity": 86},
      {"smiles": "COc1ccc(-c2nc3cc(-c4csc(C(=O)NCCC(C)C)c4)cnc3[nH]2)cc1", "Activity": 90}
    ]},
    {"target": "High affinity nerve growth factor receptor (Homo sapiens) (UniProt P04629)", "sequence (P04629 33-796 limits assumed)": "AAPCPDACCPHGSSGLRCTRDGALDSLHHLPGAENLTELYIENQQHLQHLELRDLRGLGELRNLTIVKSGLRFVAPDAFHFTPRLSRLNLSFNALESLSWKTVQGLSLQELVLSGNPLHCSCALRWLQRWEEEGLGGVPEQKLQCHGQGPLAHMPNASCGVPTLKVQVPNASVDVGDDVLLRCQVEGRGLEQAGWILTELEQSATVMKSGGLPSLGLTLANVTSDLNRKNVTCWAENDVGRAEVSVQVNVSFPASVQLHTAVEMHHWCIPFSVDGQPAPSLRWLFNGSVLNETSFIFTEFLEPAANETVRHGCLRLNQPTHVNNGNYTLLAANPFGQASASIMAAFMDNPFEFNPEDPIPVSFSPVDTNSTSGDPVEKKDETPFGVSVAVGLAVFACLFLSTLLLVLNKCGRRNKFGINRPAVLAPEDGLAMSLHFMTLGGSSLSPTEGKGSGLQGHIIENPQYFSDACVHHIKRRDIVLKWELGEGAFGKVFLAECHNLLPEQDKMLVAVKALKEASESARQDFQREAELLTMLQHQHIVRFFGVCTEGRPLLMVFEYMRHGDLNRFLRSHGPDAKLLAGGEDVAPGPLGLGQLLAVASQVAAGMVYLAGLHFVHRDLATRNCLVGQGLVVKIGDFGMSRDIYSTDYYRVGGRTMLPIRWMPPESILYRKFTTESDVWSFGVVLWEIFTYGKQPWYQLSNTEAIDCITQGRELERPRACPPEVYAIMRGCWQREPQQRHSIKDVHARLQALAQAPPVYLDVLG", "experiment": "Inhibition of human TRKA assessed as residual activity at 1 uM relative to control", "units": {"Activity": "%"}, "values": [
      {"smiles": "COc1ccc(-c2nc3cc(-c4csc(C(=O)NCC(C)(C)C)c4)cnc3[nH]2)cc1", "Activity": 77},
      {"smiles": "COc1ccc(-c2nc3cc(-c4csc(C(=O)NCC(C)C)c4)cnc3[nH]2)cc1", "Activity": 59},
      {"smiles": "COc1ccc(-c2nc3cc(-c4csc(C(=O)NCCC(C)C)c4)cnc3[nH]2)cc1", "Activity": 67}
    ]}
  ]
}
